# In PubChem BioAssay AID1259407 (Chemical Carcinogenesis Research Information System (CCRIS), 2018):
# The source made the active and inactive calls. No rule for the calls is given here.
# Test system: CCRIS mutagenicity, Ames/micronucleus/aberration tests
# Assay: CCRIS mutagenicity studies
# [1] = Test System: AMES SALMONELLA TYPHIMURIUM, Strain/Indicator: TA98, Metabolic Activation: NONE, Method: PREINCUBATION
# [2] = Test System: AMES SALMONELLA TYPHIMURIUM, Strain/Indicator: TA98, Metabolic Activation: RAT, LIVER, S-9, AROCLOR 1254 (10%), Method: PREINCUBATION
# [3] = Test System: AMES SALMONELLA TYPHIMURIUM, Strain/Indicator: TA100, Metabolic Activation: HAMSTER, LIVER, S-9, AROCLOR 1254 (10%), Method: PREINCUBATION
# [4] = Test System: AMES SALMONELLA TYPHIMURIUM, Strain/Indicator: TA100, Metabolic Activation: NONE, Method: PREINCUBATION
# [5] = Test System: AMES SALMONELLA TYPHIMURIUM, Strain/Indicator: TA100, Metabolic Activation: RAT, LIVER, S-9, AROCLOR 1254 (10%), Method: PREINCUBATION
# [6] = Test System: AMES SALMONELLA TYPHIMURIUM, Strain/Indicator: TA1535, Metabolic Activation: HAMSTER, LIVER, S-9, AROCLOR 1254 (10%), Method: PREINCUBATION
# [7] = Test System: AMES SALMONELLA TYPHIMURIUM, Strain/Indicator: TA1535, Metabolic Activation: NONE, Method: PREINCUBATION
# [8] = Test System: AMES SALMONELLA TYPHIMURIUM, Strain/Indicator: TA1535, Metabolic Activation: RAT, LIVER, S-9, AROCLOR 1254 (10%), Method: PREINCUBATION
compound,measurement,setting,value
Oc1c(Cl)c(Cl)cc(Cl)c1Cl,mutagenic call,"End Point: IN VITRO CHROMOSOMAL ABERRATIONS, Test System: CHINESE HAMSTER LUNG CELLS (CHL), Metabolic Activation: NONE",inactive; negative
same,mutagenic call,"End Point: IN VITRO CHROMOSOMAL ABERRATIONS, Test System: CHINESE HAMSTER LUNG CELLS (CHL), Metabolic Activation: RAT, LIVER, S-9, KC-400",active; positive (structural changes)
same,mutagenic call,"End Point: IN VITRO CHROMOSOMAL ABERRATIONS, Test System: CHINESE HAMSTER OVARY CELLS (CHO), Metabolic Activation: NONE",inactive; negative
same,mutagenic call,"End Point: IN VITRO CHROMOSOMAL ABERRATIONS, Test System: CHINESE HAMSTER OVARY CELLS (CHO), Metabolic Activation: RAT, LIVER, S-9, AROCLOR 1254",active; positive (structural changes)
same,mutagenic call,"Test System: AMES SALMONELLA TYPHIMURIUM, Strain/Indicator: TA97, Metabolic Activation: HAMSTER, LIVER, S-9, AROCLOR 1254 (10%), Method: PREINCUBATION",inactive; negative
same,mutagenic call,"Test System: AMES SALMONELLA TYPHIMURIUM, Strain/Indicator: TA97, Metabolic Activation: HAMSTER, LIVER, S-9, AROCLOR 1254 (30%), Method: PREINCUBATION",inactive; negative
same,mutagenic call,"Test System: AMES SALMONELLA TYPHIMURIUM, Strain/Indicator: TA97, Metabolic Activation: NONE, Method: PREINCUBATION",inactive; negative
same,mutagenic call,"Test System: AMES SALMONELLA TYPHIMURIUM, Strain/Indicator: TA97, Metabolic Activation: RAT, LIVER, S-9, AROCLOR 1254 (10%), Method: PREINCUBATION",inactive; negative
same,mutagenic call,"Test System: AMES SALMONELLA TYPHIMURIUM, Strain/Indicator: TA97, Metabolic Activation: RAT, LIVER, S-9, AROCLOR 1254 (30%), Method: PREINCUBATION",inactive; negative
same,mutagenic call,"Test System: AMES SALMONELLA TYPHIMURIUM, Strain/Indicator: TA98, Metabolic Activation: HAMSTER, LIVER, S-9, AROCLOR 1254 (10%), Method: PREINCUBATION",inactive; negative
same,mutagenic call,"Test System: AMES SALMONELLA TYPHIMURIUM, Strain/Indicator: TA98, Metabolic Activation: HAMSTER, LIVER, S-9, AROCLOR 1254 (30%), Method: PREINCUBATION",inactive; negative
same,mutagenic call,[1],inactive; negative
same,mutagenic call,[2],inactive; negative
same,mutagenic call,"Test System: AMES SALMONELLA TYPHIMURIUM, Strain/Indicator: TA98, Metabolic Activation: RAT, LIVER, S-9, AROCLOR 1254 (30%), Method: PREINCUBATION",inactive; negative
same,mutagenic call,[3],inactive; negative
same,mutagenic call,"Test System: AMES SALMONELLA TYPHIMURIUM, Strain/Indicator: TA100, Metabolic Activation: HAMSTER, LIVER, S-9, AROCLOR 1254 (30%), Method: PREINCUBATION",inactive; negative
same,mutagenic call,[4],inactive; negative
same,mutagenic call,[5],inactive; negative
same,mutagenic call,"Test System: AMES SALMONELLA TYPHIMURIUM, Strain/Indicator: TA100, Metabolic Activation: RAT, LIVER, S-9, AROCLOR 1254 (30%), Method: PREINCUBATION",inactive; negative
same,mutagenic call,[6],inactive; negative
same,mutagenic call,"Test System: AMES SALMONELLA TYPHIMURIUM, Strain/Indicator: TA1535, Metabolic Activation: HAMSTER, LIVER, S-9, AROCLOR 1254 (30%), Method: PREINCUBATION",inactive; negative
same,mutagenic call,[7],inactive; negative
same,mutagenic call,[8],inactive; negative
same,mutagenic call,"Test System: AMES SALMONELLA TYPHIMURIUM, Strain/Indicator: TA1535, Metabolic Activation: RAT, LIVER, S-9, AROCLOR 1254 (30%), Method: PREINCUBATION",inactive; negative
CS(C)(=O)=O,mutagenic call,[1],inactive; negative
same,mutagenic call,"Test System: AMES SALMONELLA TYPHIMURIUM, Strain/Indicator: TA98, Metabolic Activation: RAT, LIVER, S-9, AROCLOR 1254, Method: PREINCUBATION",inactive; negative
same,mutagenic call,[4],inactive; negative
same,mutagenic call,"Test System: AMES SALMONELLA TYPHIMURIUM, Strain/Indicator: TA100, Metabolic Activation: RAT, LIVER, S-9, AROCLOR 1254, Method: PREINCUBATION",inactive; negative
same,mutagenic call,"Test System: AMES SALMONELLA TYPHIMURIUM, Strain/Indicator: TA102, Metabolic Activation: NONE, Method: PREINCUBATION",inactive; negative
same,mutagenic call,"Test System: AMES SALMONELLA TYPHIMURIUM, Strain/Indicator: TA102, Metabolic Activation: RAT, LIVER, S-9, AROCLOR 1254, Method: PREINCUBATION",inactive; negative
Cc1ccc2cc3ccc4ccccc4c3cc2c1,mutagenic call,"Test System: AMES SALMONELLA TYPHIMURIUM, Strain/Indicator: TA100, Metabolic Activation: RAT, INTACT HEPATOCYTES, AROCLOR 1254, Method: PREINCUBATION",active; positive
same,mutagenic call,"Test System: AMES SALMONELLA TYPHIMURIUM, Strain/Indicator: TA100, Metabolic Activation: RAT, NADPH-FORTIFIED HOMOGENIZED HEPATOCYTES, AROCLOR 1254, Method: PREINCUBATION",active; positive
same,mutagenic call,"Test System: AMES SALMONELLA TYPHIMURIUM, Strain/Indicator: TA100, Metabolic Activation: RAT, SONICATED HEPATOCYTES, AROCLOR 1254, Method: PREINCUBATION",active; positive
CC(N)Cc1ccccc1 (configuration not stated),mutagenic call,"Test System: AMES SALMONELLA TYPHIMURIUM, Strain/Indicator: TA98, Metabolic Activation: HAMSTER, LIVER, S-9, AROCLOR 1254 (4%, 10% OR 20%), Method: PREINCUBATION",inactive; negative
same,mutagenic call,"Test System: AMES SALMONELLA TYPHIMURIUM, Strain/Indicator: TA98, Metabolic Activation: HAMSTER, LIVER, S-9, AROCLOR 1254 (4, 10 OR 20%), Method: PREINCUBATION",inactive; negative
same,mutagenic call,[1],inactive; negative
same,mutagenic call,[2],inactive; negative
same,mutagenic call,[3],inactive; negative
same,mutagenic call,[4],inactive; negative
same,mutagenic call,[5],inactive; negative
same,mutagenic call,[6],inactive; negative
same,mutagenic call,[7],inactive; negative
same,mutagenic call,[8],inactive; negative
same,mutagenic call,"Test System: AMES SALMONELLA TYPHIMURIUM, Strain/Indicator: TA1537, Metabolic Activation: HAMSTER, LIVER, S-9, AROCLOR 1254 (10%), Method: PREINCUBATION",inactive; negative
same,mutagenic call,"Test System: AMES SALMONELLA TYPHIMURIUM, Strain/Indicator: TA1537, Metabolic Activation: NONE, Method: PREINCUBATION",inactive; negative
same,mutagenic call,"Test System: AMES SALMONELLA TYPHIMURIUM, Strain/Indicator: TA1537, Metabolic Activation: RAT, LIVER, S-9, AROCLOR 1254 (10%), Method: PREINCUBATION",inactive; negative
CN(N=O)C(=O)c1c(N(C)C(=O)OC(C)(C)C)ncn1C,mutagenic call,"Test System: AMES SALMONELLA TYPHIMURIUM, Strain/Indicator: TA98, Metabolic Activation: NONE, Method: STANDARD PLATE",inactive; negative
same,mutagenic call,"Test System: AMES SALMONELLA TYPHIMURIUM, Strain/Indicator: TA98, Metabolic Activation: S-9, Method: STANDARD PLATE",inactive; negative
same,mutagenic call,"Test System: AMES SALMONELLA TYPHIMURIUM, Strain/Indicator: TA100, Metabolic Activation: NONE, Method: STANDARD PLATE",active; positive
same,mutagenic call,"Test System: AMES SALMONELLA TYPHIMURIUM, Strain/Indicator: TA100, Metabolic Activation: S-9, Method: STANDARD PLATE",active; positive
same,mutagenic call,"Test System: AMES SALMONELLA TYPHIMURIUM, Strain/Indicator: TA102, Metabolic Activation: NONE, Method: STANDARD PLATE",inactive; negative
same,mutagenic call,"Test System: AMES SALMONELLA TYPHIMURIUM, Strain/Indicator: TA102, Metabolic Activation: S-9, Method: STANDARD PLATE",active; positive
same,mutagenic call,"Test System: AMES SALMONELLA TYPHIMURIUM, Strain/Indicator: TA1535, Metabolic Activation: NONE, Method: STANDARD PLATE",active; positive
same,mutagenic call,"Test System: AMES SALMONELLA TYPHIMURIUM, Strain/Indicator: TA1535, Metabolic Activation: S-9, Method: STANDARD PLATE",active; positive
same,mutagenic call,"Test System: AMES SALMONELLA TYPHIMURIUM, Strain/Indicator: TA1537, Metabolic Activation: NONE, Method: STANDARD PLATE",inactive; negative
same,mutagenic call,"Test System: AMES SALMONELLA TYPHIMURIUM, Strain/Indicator: TA1537, Metabolic Activation: S-9, Method: STANDARD PLATE",inactive; negative
c1cc2ccc3cc4cccc5ccc6cc(c1)c2c3c6c54,mutagenic call,"Test System: AMES SALMONELLA TYPHIMURIUM, Strain/Indicator: TA100, Metabolic Activation: RAT, LIVER, S-9, AROCLOR 1254, Method: STANDARD PLATE",active; positive
